# “And” between values parts separate entries of the source, which are not always exact repeats. Equal values may be shown once.
# Legend:
# Settings in all cases: incubation time: 72 h
# [1] = test system: MDA-MB-453; test: normalised viability (% of control), CellTiter-Blue; higher = more viable cells (about 100 = DMSO control)
# How it was run: (§1)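 Compound dissolved in 5 µl medium was pre-loaded into 384-well plates, and breast cancer cell lines in 20 µl suspension were seeded on top and incubated 72 h. After adding 2.5 µl CellTiter-Blue reagent for 2 h at 37 °C, fluorescence was read at 560/590 nm. Plates were normalised to vehicle (100) and a positive kill control (0), with Z'-factor quality control. Each value is normalised viability at a single listed concentration from the series.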
# [2] = test system: CAL-85-1; test: as above
# How it was run: as §1
# [3] = test system: HDQ-P1; test: as above
# How it was run: as §1
# [4] = test system: BT-474; test: as above
# How it was run: as §1
# [5] = test system: CAL-120; test: as above
# How it was run: as §1
# [6] = test system: CAL-51; test: as above
# How it was run: as §1
# [7] = test system: CAL-148; test: drug sensitivity score (DSS), CellTiter-Glo (DSS (AUC-based score)); higher = stronger drug effect (viability inhibition or cytotoxicity); extreme values may be limits of the assay
# How it was run: (§2)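 Normalisation on every plate relied on 0.1 % DMSO and a positive kill control. The plates, 384-well format, held compound at 5 concentrations 10-fold apart across a compound-specific 10,000-fold range, and breast cancer cell lines in 20 µl suspension were incubated on them for 72 h before CellTox Green and then CellTiter-Glo readings. The drug sensitivity score derives from the area under the fitted dose-response curve.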
# [8] = test system: MDA-MB-453; test: as above
# How it was run: as §2
# [9] = test system: HCC1937; test: as above
# How it was run: as §2
# [10] = test system: BT-549; test: as above
# How it was run: as §2
# [11] = test system: DU-4475; test: as above
# How it was run: as §2
# [12] = test system: CAL-85-1; test: as above
# How it was run: as §2
# [13] = test system: MDA-MB-468; test: as above
# How it was run: as §2
# [14] = test system: HDQ-P1; test: as above
# How it was run: as §2
# [15] = test system: MDA-MB-436; test: as above
# How it was run: as §2
# [16] = test system: SK-BR-3; test: as above
# How it was run: as §2
# [17] = test system: MDA-MB-231; test: as above
# How it was run: as §2
# [18] = test system: BT-474; test: as above
# How it was run: as §2
# [19] = test system: MCF-10A; test: as above
# How it was run: as §2
# [20] = test system: CAL-120; test: as above
# How it was run: as §2
# [21] = test system: Hs578T; test: as above
# How it was run: as §2
# [22] = test system: MFM-223; test: as above
# How it was run: as §2
# [23] = test system: HCC1599; test: as above
# How it was run: as §2
# [24] = test system: HCC1143; test: as above
# How it was run: as §2
# [25] = test system: CAL-51; test: as above
# How it was run: as §2
# [26] = test system: MDA-MB-231; test: normalised viability (% of control), CellTiter-Blue; higher = more viable cells (about 100 = DMSO control)
# How it was run: as §1
# [27] = test system: Hs578T; test: as above
# How it was run: as §1
Structure (SMILES),normalised viability ([1]; 10 nM),normalised viability ([2]; 10 nM),normalised viability ([3]; 10 nM),normalised viability ([4]; 100 nM),normalised viability ([5]; 100 nM),normalised viability ([6]; 10 nM),drug sensitivity score [7],drug sensitivity score [8],drug sensitivity score [9],drug sensitivity score [10],drug sensitivity score [11],drug sensitivity score [12],drug sensitivity score [13],drug sensitivity score [14],drug sensitivity score [15],drug sensitivity score [16],drug sensitivity score [17],drug sensitivity score [18],drug sensitivity score [19],drug sensitivity score [20],drug sensitivity score [21],drug sensitivity score [22],drug sensitivity score [23],drug sensitivity score [24],drug sensitivity score [25],normalised viability ([1]; 1 nM) [%],normalised viability ([2]; 1 nM) [%],normalised viability ([3]; 1 nM) [%],normalised viability ([26]; 10 nM) [%],normalised viability ([4]; 10 nM) [%],normalised viability ([5]; 10 nM) [%],normalised viability ([27]; 10 nM) [%],normalised viability ([6]; 1 nM) [%],normalised viability ([26]; 100 nM) [%],normalised viability ([27]; 100 nM) [%]
CS(=O)(=O)CCNCc1ccc(-c2ccc3ncnc(Nc4ccc(OCc5cccc(F)c5)c(Cl)c4)c3c2)o1 [Lapatinib],95.8% and 83.7%,94.6% and 101%,102% and 124%,51.4% and 56.8%,84.9% and 101%,116% and 104%,0,1.41,0,0,0,1.7,0,2.38,0,10.8,0,0,4.31,0,0,0,0,0,0,–,–,–,–,–,–,–,–,–,–
C[C@@H]1CCN(C(=O)CC#N)C[C@@H]1N(C)c1ncnc2[nH]ccc12 [Tofacitinib],–,–,–,–,–,–,0,0,0,0,0,0,0,0,0,0,0,0,0,0,0,0,0,0,5,–,–,–,–,–,–,–,–,–,–
CCOc1cc2ncc(C#N)c(Nc3ccc(OCc4ccccn4)c(Cl)c3)c2cc1NC(=O)/C=C/CN(C)C [Neratinib],–,–,–,–,–,–,2.61,8.47,0,0,0,7.08,4.31,6.58,0,24.8,0,0,11,1.19,0,0.624,0,0,1.09,100,96.5,114,118,105,84.9,84.1,97.1,–,–
COC(=O)C[C@](O)(CCCC(C)(C)O)C(=O)O[C@@H]1C(OC)=C[C@]23CCCN2CCc2cc4c(cc2[C@H]13)OCO4 [Omacetaxine],–,–,–,–,–,–,19.9,16.8,21.2,26.7,30.6,29.6,27.4,23.1,27,23.4,21.2,16.7,22.1,19,26,22.1,26.7,22.4,27.1,–,–,–,–,–,–,–,–,–,–
COC1=C2C[C@@H](C)C[C@H](OC)[C@H](O)[C@@H](C)/C=C(\C)[C@H](OC(N)=O)[C@@H](OC)/C=C\C=C(/C)C(=O)NC(=CC1=O)C2=O [Geldanamycin],120%,105%,109%,33.6%,25.1%,104%,1.87,3.9,5.93,5.68,6.88,6,4.27,4,8.77,5.98,5.32,4.34,3.98,2.21,3.07,11.3,1.53,2.36,5.12,–,–,–,–,–,–,–,–,31.4,56.8
CC(C)(C)c1cc(NC(=O)Nc2ccc(-c3cn4c(n3)sc3cc(OCCN5CCOCC5)ccc34)cc2)no1 [Quizartinib],–,–,–,–,–,–,0,0,0,0,0,0,0,0,0,0,0,0,0,0,0,0,0,0,0,99,101,91.8,91.3,94.6,94.4,69.5,107,–,–
COc1cc(Nc2ncc(F)c(Nc3ccc4c(n3)NC(=O)C(C)(C)O4)n2)cc(OC)c1OC [Tamatinib],–,–,–,–,–,–,0,0,0,4.09,0,0,0,0,0,0,0,0,0,0,0,0,0,0,2.11,–,–,–,–,–,–,–,–,–,–
Cn1c(=O)c(F)c(Nc2ccc(I)cc2F)c2c(=O)n(C[C@@H](O)CO)cnc21 [TAK-733],–,–,–,–,–,–,0,0,3,0.999,25.4,6.4,3.59,10.1,1.27,0,3.88,6.85,18.5,4.39,0,0.644,0,0,8.36,123,107,118,54.9,123,92.7,86.8,103,–,–
C[C@@]1(C(=O)Nc2ccc(F)nc2)CCCN1c1nc(Nc2cc(C3CC3)n[nH]2)c2cccn2n1,112%,93.5%,89.5%,118%,91.8%,97%,0,0,0,9.6,5.67,10.7,16.4,15.8,7.17,6.12,9.67,9.15,25,10.3,3.38,10.2,5.62,6.03,9.26,–,–,–,–,–,–,–,–,93.8,79.4
c1ccc(C2CN3CCSC3=N2)cc1 (configuration not stated) [Tetramisole],98.1%,103%,122%,109%,120%,95.2%,–,–,–,–,–,–,–,–,–,–,–,–,–,–,–,–,–,–,–,–,–,–,–,–,–,–,–,101,97.5
COc1cc(Nc2ncc(F)c(Nc3ccc4c(n3)NC(=O)C(C)(C)O4)n2)cc(OC)c1OC [R406],106%,90.2%,107%,116%,90.8%,107%,–,–,–,–,–,–,–,–,–,–,–,–,–,–,–,–,–,–,–,–,–,–,–,–,–,–,–,102,112
Cc1cc(C(C)Nc2ccccc2)c2nc(N3CCOCC3)cc(=O)n2c1 (configuration not stated) [TGX-221],–,–,–,–,–,–,0,0,0,2.27,0,0,4.69,0.256,0,0,0,3.45,0,0.0447,0,0,0,0,10.7,–,–,–,–,–,–,–,–,–,–
Nc1nccc(-c2c(-c3ccc(F)cc3)ncn2C2CCCCC2)n1,–,–,–,–,–,–,0,0.568,0,0,0,0.583,5.85,0,0,0,0,0.373,0.945,0,0,0,0,0,0.055,–,–,–,–,–,–,–,–,–,–
CN(c1ccccc1CNc1nc(Nc2ccc3c(c2)CC(=O)N3)ncc1C(F)(F)F)S(C)(=O)=O,–,–,–,–,–,–,1.24,0,2.73,5.64,7.61,6.85,8.4,7.23,2.86,5.83,7.82,7.07,9.21,4.65,4.29,2.28,3.99,4.97,10.6,–,–,–,–,–,–,–,–,–,–
O=P(O)(NCCCl)NCCCl [Ifosfamide mustard],106%,101%,122%,112%,92.3%,107%,–,–,–,–,–,–,–,–,–,–,–,–,–,–,–,–,–,–,–,–,–,–,–,–,–,–,–,95.6,72.2
FC(F)c1nc2ccccc2n1-c1nc(N2CCOCC2)nc(N2CCOCC2)n1 [ZSTK474],–,–,–,–,–,–,6.71,12.9,6.46,13.1,1.87,10.4,8.61,10.8,9.24,15.3,7.99,6.3,10.9,7.92,11.3,9.3,2.33,6.07,11.6,–,–,–,–,–,–,–,–,–,–
